From patent US12180185B2, “Compound as protein kinase inhibitor, and pharmaceutical composition comprising thereof” (HK INNO.N Corporation, priority 2018, dated 2024)
pIC50: −log10 of the molar value.

Each compound was assayed against JAK1 (Homo sapiens (Human), UniProt P23458) (assay: Analysis of JAK1 activity inhibitory capacity (ADP-Glo Kinase assay)). Conditions: JAK1 enzyme, ATP 250 uM, IRS-1tide substrate, 30° C. 40 minutes, luminescence.
Type: biochemical
Description: Experimental Example 1: Analysis of JAK1 activity inhibitory capacity (ADP-Glo™ Kinase assay)
An inhibitory effect of the inventive compound on JAK was identified as follows.
A control material and a test material were prepared through dilution at each concentration by using DMSO. At the same time, ATP (250 uM) and JAK's substrate (JAK1, IRS-1tide 40 ng/mL) were prepared through dilution in kinase buffer (40 mM Tris-HCl pH 7.5, 20 mM MgCl2, 0.5 mg/mL BSA, 50 uM DTT).
A test drug for each concentration, the substrate, the ATP and JAK enzymes were mixed in an eppendorf tube, and then subjected to reaction in an incubator at 30° C. for 40 minutes.
ADP-Glo ? reagent included in ADP-Glo™ Kinase Enzyme System (Promega, USA, V9571) was added to each eppendorf tube, and then subjected to reaction in the incubator at 30° C. for 40 minutes.
A kinase detection reagent included in the ADP-Glo™ Kinase Enzyme System was inserted into the eppendorf tube, after which luminescence was measured by using Wallac Victor 2TM with an integration time set to 1 second, such that an inhibitory capacity of the test material on JAKs phosphorylation was analyzed. A concentration of the compound, at which JAK enzyme activity inhibition occurs 50% compared to the control group, was determined as IC50 (nM) of an inhibitor.

Sequence of JAK1 (P23458 whole entry): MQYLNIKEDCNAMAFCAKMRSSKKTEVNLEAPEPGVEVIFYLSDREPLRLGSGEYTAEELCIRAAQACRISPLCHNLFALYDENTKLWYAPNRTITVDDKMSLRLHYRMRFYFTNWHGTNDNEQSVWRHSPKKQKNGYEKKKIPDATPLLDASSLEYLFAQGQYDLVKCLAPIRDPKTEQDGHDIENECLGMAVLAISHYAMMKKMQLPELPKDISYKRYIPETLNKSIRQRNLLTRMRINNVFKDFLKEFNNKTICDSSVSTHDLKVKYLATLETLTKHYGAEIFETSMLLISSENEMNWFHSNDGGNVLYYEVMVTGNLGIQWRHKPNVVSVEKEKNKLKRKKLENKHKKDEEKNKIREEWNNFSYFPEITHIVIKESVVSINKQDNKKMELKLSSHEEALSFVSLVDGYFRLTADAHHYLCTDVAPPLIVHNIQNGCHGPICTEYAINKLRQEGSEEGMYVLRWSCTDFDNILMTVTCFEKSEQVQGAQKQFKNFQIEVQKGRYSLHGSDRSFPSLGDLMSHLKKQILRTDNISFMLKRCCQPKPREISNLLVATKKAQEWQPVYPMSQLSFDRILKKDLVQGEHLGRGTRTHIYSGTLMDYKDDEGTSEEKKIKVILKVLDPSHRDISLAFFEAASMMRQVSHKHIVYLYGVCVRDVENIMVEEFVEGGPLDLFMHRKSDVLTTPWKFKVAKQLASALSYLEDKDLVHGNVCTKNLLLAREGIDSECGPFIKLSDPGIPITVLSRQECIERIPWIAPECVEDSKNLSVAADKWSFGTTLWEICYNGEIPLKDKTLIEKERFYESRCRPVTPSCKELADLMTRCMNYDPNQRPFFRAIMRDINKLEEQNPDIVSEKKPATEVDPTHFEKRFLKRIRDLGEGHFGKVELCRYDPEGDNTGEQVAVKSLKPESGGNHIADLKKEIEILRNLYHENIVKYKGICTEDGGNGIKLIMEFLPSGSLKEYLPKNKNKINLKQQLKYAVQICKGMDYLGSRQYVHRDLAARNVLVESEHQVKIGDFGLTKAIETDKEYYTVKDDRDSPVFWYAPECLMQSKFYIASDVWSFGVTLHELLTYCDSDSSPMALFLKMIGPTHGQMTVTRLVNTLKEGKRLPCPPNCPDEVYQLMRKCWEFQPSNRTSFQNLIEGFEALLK

Row | pIC50 | Compound
1 | > 7.00 | CC(C)=C(C#N)C(=O)Nc1cccc2c(-c3ccnc(NC(=O)C4CC4)c3)c[nH]c12 [Example 1, N-(4-(7-(2-cyano-3-methylbut-2-enamido)-1H-indol-3-yl)pyridin-2-yl)cyclopropanec arboxamide]
2 | > 7.00 | O=C(Nc1cccc2c(-c3ccnc(NC(=O)C4CC4)c3)c[nH]c12)c1cc(F)cc(F)c1 [Example 2, N-(3-(2-(cyclopropanecarboxamido)pyridin-4-yl)-1H-indol-7-yl)-3,5-difluorobenzamide]
3 | 6.00 to 7.00 | O=C(Nc1cc(-c2c[nH]c3c(NC(=O)C4CCCCC4)cccc23)ccn1)C1CC1 [Example 3, N-(3-(2-(cyclopropanecarboxamido)pyridin-4-yl)-1H-indol-7-yl)cyclohexanecarboxamide]
4 | > 7.00 | O=C(Nc1cccc2c(-c3ccnc(NC(=O)C4CC4)c3)c[nH]c12)c1ccnc(F)c1 [Example 4, N-(3-(2-(cyclopropanecarboxamido)pyridin-4-yl)-1H-indol-7-yl)-2-fluoroisonicotinamide]
5 | > 7.00 | Cc1cc(C)cc(C(=O)Nc2cccc3c(-c4ccnc(NC(=O)C5CC5)c4)c[nH]c23)c1 [Example 5, N-(3-(2-(cyclopropanecarboxamido)pyridin-4-yl)-1H-indol-7-yl)-3,5-dimethylbenzamid]
6 | > 7.00 | O=C(Nc1cccc2c(-c3ccnc(NC(=O)C4CC4)c3)c[nH]c12)c1cncs1 [Example 6, N-(3-(2-(cyclopropanecarboxamido)pyridin-4-yl)-1H-indol-7-yl)thiazole-5-carboxamide]
7 | > 7.00 | CCCC(=O)Nc1cccc2c(-c3ccnc(NC(=O)C4CC4)c3)c[nH]c12 [Example 7, N-(4-(7-butyramido-1H-indol-3-yl)pyridin-2-yl)cyclopropanecarboxamide]
8 | 6.00 to 7.00 | Cc1cnc(NC(=O)C2CC2)cc1-c1c[nH]c2c(NC(=O)CC#N)cccc12 [Example 8, N-(4-(7-(2-cyanoacetamido)-1H-indol-3-yl)-5-methylpyridin-2-yl)cyclopropanecarboxamide]
9 | < 6.00 | CC(C)=C(C#N)C(=O)Nc1cccc2c(-c3cc(C)nc(NC(=O)C4CC4)c3)c[nH]c12 [Example 9, N-(4-(7-(2-cyano-3-methylbut-2-enamido)-1H-indol-3-yl)-6-methylpyridin-2-yl)cyclopropanecarboxamide]
10 | > 7.00 | N#CCC(=O)Nc1cccc2c(-c3ccnc(NC(=O)C4CC4)c3)c[nH]c12 [Example 10, N-(4-(7-(2-cyanoacetamido)-1H-indol-3-yl)pyridin-2-yl)cyclopropanecarboxamide]
11 | 6.00 to 7.00 | N#CC1(C(=O)Nc2cccc3c(-c4ccnc(NC(=O)C5CC5)c4)c[nH]c23)CCOCC1 [Example 11, 4-cyano-N-(3-(2-(cyclopropanecarboxamido)pyridin-4-yl)-1H-indol-7-yl)tetrahydro-2H-pyran-4-carboxamide]
12 | < 6.00 | CC(C)=C(C#N)C(=O)Nc1cccc2c(-c3cc(NC(=O)C4CC4)ncc3C)c[nH]c12 [Example 12, N-(4-(7-(2-cyano-3-methylbut-2-enamido)-1H-indol-3-yl)-5-methylpyridin-2-yl)cyclopropanecarboxamide]
13 | 6.00 to 7.00 | N#CC1(CC(=O)Nc2cccc3c(-c4ccnc(NC(=O)C5CC5)c4)c[nH]c23)CC1 [Example 13, N-(4-(7-(2-(l-cyanocyclopropyl)acetamido)-1H-indol-3-yl)pyridin-2-yl)cyclopropanecarboxamide]
14 | > 7.00 | CC(C#N)C(=O)Nc1cccc2c(-c3ccnc(NC(=O)C4CC4)c3)c[nH]c12 (stereo not shown) [Example 14, N-(4-(7-(2-cyanopropanamido)-1H-indol-3-yl)pyridin-2-yl)cyclopropanecarboxamide]
15 | 6.00 to 7.00 | CC(C)=C(C#N)C(=O)Nc1cc(C)cc2c(-c3ccnc(NC(=O)C4CC4)c3)c[nH]c12 [Example 15, N-(4-(7-(2-cyano-3-methylbut-2-enamido)-5-methyl-1H-indol-3-yl)pyridin-2-yl)cyclo propanecarboxamide]
16 | 6.00 to 7.00 | Cc1cc(NC(=O)c2cnc(C)cn2)c2[nH]cc(-c3ccnc(NC(=O)C4CC4)c3)c2c1 [Example 16, N-(3-(2-(cyclopropanecarboxamido)pyridin-4-yl)-5-methyl-1H-indol-7-yl)-5-methylpyrazine-2-carboxamide]
17 | 6.00 to 7.00 | CC(C)=C(C)C(=O)Nc1cccc2c(-c3ccnc(NC(=O)C4CC4)c3)c[nH]c12 [Example 17, N-(4-(7-(2,3-dimethylbut-2-enamido)-1H-indol-3-yl)pyridin-2-yl)cyclopropanecarboxamide]

Row | pIC50 | Compound
18 | 6.00 to 7.00 | CC(C(=O)Nc1cccc2c(-c3ccnc(NC(=O)C4CC4)c3)c[nH]c12)N1CCN(C)CC1 (stereo not shown) [Example 18, N-(4-(7-(2-(4-methylpiperazin-1-yl)propanamido)-1H-indol-3-yl)pyridin-2-yl)cyclopropanecarboxamide]
19 | < 6.00 | COc1cc(-c2c[nH]c3c(NC(=O)C(C#N)=C(C)C)cccc23)cc(NC(=O)C2CC2)n1 [Example 19, N-(4-(7-(2-cyano-3-methylbut-2-enamido)-1H-indol-3-yl)-6-methoxypyridin-2-yl)cyclopropanecarboxamide]
20 | < 6.00 | COc1cc(-c2c[nH]c3c(NC(=O)CC#N)cccc23)cc(NC(=O)C2CC2)n1 [Example 20, N-(4-(7-(2-cyanoacetamido)-1H-indol-3-yl)-6-methoxypyridin-2-yl)cyclopropanecarboxamide]
21 | 6.00 to 7.00 | O=C(Nc1cccc2c(-c3ccnc(NC(=O)C4CC4)c3)c[nH]c12)c1nc(C(F)(F)F)cs1 [Example 21, N-(3-(2-(cyclopropanecarboxamido)pyridin-4-yl)-1H-indol-7-yl)-4-(trifluoromethyl)thiazole-2-carboxamide]
22 | 6.00 to 7.00 | N#C/C(=C\c1ccccc1)C(=O)Nc1cccc2c(-c3ccnc(NC(=O)C4CC4)c3)c[nH]c12 [Example 22, (E)-N-(4-(7-(2-cyano-3-phenylacrylamido)-1H-indol-3-yl)pyridin-2-yl)cyclopropanecarboxamide]
23 | 6.00 to 7.00 | O=C(Nc1cccc2c(-c3ccnc(NC(=O)C4CC4)c3)c[nH]c12)c1ccc[nH]1 [Example 23, N-(3-(2-(cyclopropanecarboxamido)pyridin-4-yl)-1H-indol-7-yl)-1H-pyrrole-2-carboxamide]
24 | > 7.00 | Cc1ccncc1C(=O)Nc1cccc2c(-c3ccnc(NC(=O)C4CC4)c3)c[nH]c12 [Example 24, N-(3-(2-(cyclopropanecarboxamido)pyridin-4-yl)-1H-indol-7-yl)-4-methylnicotinamide]
25 | 6.00 to 7.00 | N#C/C(=C\c1cccs1)C(=O)Nc1cccc2c(-c3ccnc(NC(=O)C4CC4)c3)c[nH]c12 [Example 25, (E)-N-(4-(7-(2-cyano-3-(thiophen-2-yl)acrylamido)-1H-indol-3-yl)pyridin-2-yl)cyclopropanecarboxamide]
26 | < 6.00 | CC(C)=C(C#N)C(=O)Nc1cccc2c(-c3ccnc(NC(=O)C4CC4)c3)cn(C)c12 [Example 26, N-(4-(7-(2-cyano-3-methylbut-2-enamido)-1-methyl-1H-indol-3-yl)pyridin-2-yl)cyclopropanecarboxamide]
27 | 6.00 to 7.00 | N#Cc1ccc(C(=O)Nc2cccc3c(-c4ccnc(NC(=O)C5CC5)c4)c[nH]c23)cc1 [Example 27, 4-cyano-N-(3-(2-(cyclopropanecarboxamido)pyridin-4-yl)-1H-indol-7-yl)benzamide]
28 | > 7.00 | Cc1ccc(C(=O)Nc2cccc3c(-c4ccnc(NC(=O)C5CC5)c4)c[nH]c23)cn1 [Example 28, N-(3-(2-(cyclopropanecarboxamido)pyridin-4-yl)-1H-indol-7-yl)-6-methylnicotinamide]
29 | 6.00 to 7.00 | O=C(Nc1cccc2c(-c3ccnc(NC(=O)C4CC4)c3)c[nH]c12)c1ccc(C(F)(F)F)nc1 [Example 29, N-(3-(2-(cyclopropanecarboxamido)pyridin-4-yl)-1H-indol-7-yl)-6-(trifluoromethyl) nicotinamide]
30 | > 7.00 | O=C(Nc1cccc2c(-c3ccnc(NC(=O)C4CC4)c3)c[nH]c12)c1cnc(F)c(F)c1 [Example 30, N-(3-(2-(cyclopropanecarboxamido)pyridin-4-yl)-1H-indol-7-yl)-5,6-difluoronicotinamide]
31 | > 7.00 | O=C(Nc1cccc2c(-c3ccnc(NC(=O)C4CC4)c3)c[nH]c12)c1cncc(F)c1 [Example 31, N-(3-(2-(cyclopropanecarboxamido)pyridin-4-yl)-1H-indol-7-yl)-5-fluoronicotinamide]
32 | 6.00 to 7.00 | O=C(Nc1cccc2c(-c3ccnc(NC(=O)C4CC4)c3)c[nH]c12)c1ccc(Cl)nc1 [Example 32, 6-chloro-N-(3-(2-(cyclopropanecarboxamido)pyridin-4-yl)-1H-indol-7-yl)nicotinamide]
33 | 6.00 to 7.00 | O=C(Nc1cccc2c(-c3ccnc(NC(=O)C4CC4)c3)c[nH]c12)c1cc[nH]n1 [Example 33, N-(3-(2-(cyclopropanecarboxamido)pyridin-4-yl)-1H-indol-7-yl)-1H-pyrazole-3-carboxamide]
34 | 6.00 to 7.00 | Cn1cccc(C(=O)Nc2cccc3c(-c4ccnc(NC(=O)C5CC5)c4)c[nH]c23)c1=O [Example 34, N-(3-(2-(cyclopropanecarboxamido)pyridin-4-yl)-1H-indol-7-yl)-1-methyl-2-oxo-1,2-dihydropyridine-3-carboxamide]
